The values that follow come from article PMC10630888, “Nuclear ERK1/2 signaling potentiation enhances neuroprotection and cognition via Importinα1/KPNA2” (EMBO Molecular Medicine, 2023).

One test concerns p-ERK in dorsal striatum. Nature of the test: In vivo dose response of striatal pERK. Also on record: species or system mouse. To be noted: 1 h after administration, individual mice. As to the method: For the dose response study, 2‐month‐old CD1 male mice were injected with different doses of RB5 (1, 2.5, 5, 10, and 20 mg/kg, i.p.), whereas the control group was injected with 20 mg/kg (i.p.) of SCR peptide. Mice were perfused 1 h later with 4% PFA. For the time course study, mice were injected i.p. with 20 mg/kg of RB5 and perfused at different time points with 4% PFA (1, 3, 6, and 12 h). The control group was injected i.p. with 20 mg/kg of SCR. Brains were postfixed in 4% PFA for 24 h and cryoprotected overnight in sucrose 30% before immunohistochemistry against phospho‐ERK1/2.
(§1) Immunohistochemistry was performed as described in Papale et al ([2016]). […]
For in vivo immunohistochemistry experiments, images were acquired from the dorsal striatum using a Leica DM IRB microscope under a 20× objective. The number of p‐ERK, p‐MSK‐1, p‐ELK, p‐MEK‐1, p‐VG K+, c‐Fos, and DARPP‐32 positive cells was counted in 2–3 consecutive sections per mouse, bilaterally and averaged across the sections using the ImageJ software by a blind investigator to the condition. Estimation of nigral cell loss was assessed by quantifying the number of TH‐immunopositive neurons of the SNc in 360 μm‐spaced sections for each animal.

The test system of test [1] is cleaved caspase-3. Put plainly: Cleaved caspase-3 in striatum, 3-NP model with RB5. It is filed as in vivo, mouse. To be noted: peptide 20 mg/kg i.p. twice a day plus 3-NP 50 mg/kg i.p. once a day, 7 days; individual mice. The source says:
(§2) In ex‐vivo and in‐vivo immunofluorescence experiments, the number of p‐S6 or p‐AcH3 immunoreactive neurons among NeuN‐positive neurons was counted in 2–3 consecutive striatal sections per mouse in four fields per section. Caspase 3‐positive cells were quantified among NeuN‐positive neurons in each slide and expressed as percentage (ratio between caspase‐3‐positive cells and total NeuN‐positive neurons) for each field acquired through the slide. The number of cells showing mutant Huntingtin inclusions were expressed as a percentage of mutant Huntingtin‐positive cells among DAPI‐positive cells.

The test system of test [2] is tyrosine hydroxylase (TH) positive cells of the SNc. Put plainly: TH-positive cells in SNc, MPTP model. It is filed as in vivo, mouse. As to the method:
as §1
For in vivo immunohistochemistry experiments, images were acquired from the dorsal striatum using a Leica DM IRB microscope under a 20× objective. The number of p‐ERK, p‐MSK‐1, p‐ELK, p‐MEK‐1, p‐VG K+, c‐Fos, and DARPP‐32 positive cells was counted in 2–3 consecutive sections per mouse, bilaterally and averaged across the sections using the ImageJ software by a blind investigator to the condition. Estimation of nigral cell loss was assessed by quantifying the number of TH‐immunopositive neurons of the SNc in 360 μm‐spaced sections for each animal. […]
Immuno‐labeled sections were visualized under a Leica DM/RBE light microscope and an Olympus BX50 light microscope with Visiopharm Integrator System software (version 4.4.6.9). TH‐positive cells were counted at 200‐μm intervals. The total number of cells (C) for each animal was calculated using the following formula: C = ∑c × (∑A/∑a) × f, where c is the number of cells in each sampling frame, A is the inclusion area for each section, a is the area of the sampling frame for each animal, and f is the frequency of sectioning.

Test [3] relates to cleaved caspase-3. Put plainly: Cleaved caspase-3 in SN, MPTP model. It is filed as in vivo, mouse.
From the text: as §2
1‐methyl‐4‐phenyl‐1,2,3,6‐tetrahydropyridine‐hydrochloride (MPTP‐HCl, Sigma, Italy) was dissolved in saline and administered i.p. once daily at a dose of 20 mg/kg for 4 days. RB5 (20 mg/kg i.p.) was injected daily 30 min before MPTP.

For a further test, the system named is pERK in CA1. Put plainly: pERK in hippocampal CA1 of Tg2576 mice. It is filed as in vivo, mouse. To be noted: for pERK in hippocampal CA1 (Fig 5 panel j): individual animals. The protocol:
Immunohistochemistry was performed as described in Papale et al ([2016]). Briefly, 1 h after blocking in 5% normal goat serum and 0.1% Triton X‐100 solution, free‐floating sections were incubated overnight at 4°C with one of the following primary antibodies: anti‐phospho‐p44/42 MAP kinase (Thr202/Tyr204) (1:200, Cell Signaling Technology #9101), anti‐phospho–Elk‐1 (Ser383) (1:100, Cell Signaling #9181), anti‐phospho‐Kv4.2 (Thr607)‐R (1:100, Santa Cruz sc22254‐R), anti‐phospho‐MSK‐1 (1:100 Cell Signaling Technology #9595), anti‐phospho‐MEK1/2 (Ser218/222) (1:100, sc‐7995 Santa Cruz Biotechnology), c‐Fos (1:100, sc‐52 Santa Cruz Biotechnology), tyrosine Hydroxylase (monoclonal 1:1,000, Sigma Aldrich, Italy) and anti‐DARPP‐32 (H3) (1:100, Santa Cruz Biotechnology, #sc‐271111) overnight at 4°C. Sections were then incubated with biotinylated goat anti‐rabbit IgG (1:200, Vector Laboratories) or biotinylated goat anti‐mouse (1:200, Vector Laboratories) for 2 h. The classic avidin‐peroxidase complex (ABC, Vector, UK) protocol was applied, using 3,3′‐diaminobenzidine (DAB, Sigma) as a chromogen.
Tg2576 mice were administered with RB5 or Scramble (20 mg/kg i.p.) for either 7 days, for IHC analysis, or with a single injection (20 mg/kg i.p.), for behavioral analysis.

[4] abbreviates: MPTP 20 mg/kg i.p. and RB5 20 mg/kg i.p. for 4 days.

“And” between values parts separate entries of the source, which are not always exact repeats. Equal values may be shown once.

As to “GRKKRRQRRRPPQGGGGGEPRRTEGVGPGVPGEVEMVKGQPFDV [RB5, six D-amino acids, acetylated N-terminus]”, the “p-ERK-positive cells in dorsal striatum” value in the test with p-ERK in dorsal striatum (10 mg/kg i.p.) and in the test on p-ERK in dorsal striatum (20 mg/kg i.p.) was “significant striatal ERK activation” in each case. For the same sequence, in the test with cleaved caspase-3 [1], the “Cleaved caspase-3-positive cells among NeuN-positive neurons” value was “significantly reduced neuronal death”. The “Tyrosine hydroxylase (TH) loss in SNc” value in test [2] (setting [4]) is on record as “prevented tyrosine hydroxylase (TH) loss”. Moreover, in test [2] (MPTP model, individual animals), the “TH-positive cells in SNc (Fig 5 panel g)” value is 3818.38 and 2495.7 and 4195.82 and 2081.4 and 2629.68 and 4880.04 and 2139.82 and 2203.06 and 3349.83 and 3862.19 and 2316.4 and 3288.79 and 3386.28. Further, the “Apoptotic cell death (cleaved caspase-3-positive cells)” value in the test with cleaved caspase-3 [3] (setting [4]) was “counteracted apoptotic cell death”. For the same sequence, the “cleaved caspase-3 in SN (Fig 5 panel h)” value in the test with cleaved caspase-3 [3] (MPTP model, individual animals) is 15.9941 and 14.3542 and 22.1236 and 12.1639 and 12.097 and 11.2152 and 20.664 and 29.614 and 13.0618 and 19.582 and 19.4193 and 16.215 and 16.8899 and 24.4755. Moreover, the “ERK phosphorylation in hippocampal CA1” value with pERK in CA1 (Tg2576 mice, 7 months old, 20 mg/kg i.p. for 7 days) is “restored ERK phosphorylation”. Further, the “pERK in hippocampal CA1 (Fig 5 panel j)” value is 12.58 and 9.08 and 13.47 and 9.49 and 10.2 and 10.95 and 9.29 and 11.78 in the test with pERK in CA1 (Tg2576 mice); 8.46 and 10.53 and 9.48 and 11.97 and 13.27 and 10.48 and 8.7 in the test on pERK in CA1 (WT mice).
